Publication PMC10726441, “Discovery of Tumor-Targeted 6-Methyl Substituted Pemetrexed and Related Antifolates with Selective Loss of RFC Transport” (ACS Medicinal Chemistry Letters, 2023)
“Also recorded” adds a separate entry of the source.

Assays:
[1] = test system: IGROV1 epithelial ovarian cancer cells; assay: Cell proliferation assay, IGROV1 tumor cells; format: cell-based, human; details: for IC50: Homo sapiens, IGROV-1, 96 h, 0-1000 nM, mean (standard error), 3-5 experiments; for potency toward IGROV1 cells compared with IOSE 7576 cells (in words): IGROV1 vs IOSE 7576
From the text: For the tumor cells, except the des-methyl compound 4 with IGROV1 cells, all compounds were inhibitory. […]
Reagents for biological studies. Leucovorin [(6R,S) 5-formyl tetrahydrofolate] and methotrexate (MTX) was provided by the Drug Development Branch, National Cancer Institute, Bethesda, MD. Other chemicals were obtained from commercial sources in the highest available purities. Pemetrexed (PMX; 1) [N-{4-[2- (2-amino-3,4-dihydro-4-oxo-7H-pyrrolo[2,3-d]pyrimidin-5-yl)ethyl]benzoyl-L-glutamic acid] (Alimta) was purchased from LC Laboratories (Woburn, MA). The syntheses of compounds 2 and 3 were previously described.7, 8 Additional chemicals were purchased from commercial sources in the highest available purities. […]
KB nasopharyngeal carcinoma cells were obtained from the American Type Culture Collection (Manassas, VA) and IGROV1 (NCI-IGROV1) (passage 5) ovarian adenocarcinoma cells13 were obtained from the Division of Cancer Treatment and Diagnosis, National Cancer Institute (Frederick, MD). Normal ovary cells immortalized with SV40 (IOSE 7576)14 were obtained from the Canadian OvCaRe Cell Bank […]
(§1) (Vancouver, B.C). IGROV1, KB and IOSE 7576 cells were cultured in complete FF-RPMI with 10% fetal bovine serum and 100 units/mL penicillin/100 μg/mL streptomycin, and 2 mM L-glutamine. Cell lines were tested for Mycoplasma by PCR using a Mycloplasma testing kit (Venor™ GeM Mycoplasma Detection Kit, Sigma). Frozen stocks were generated from authenticated Mycoplasma-free cultures.
(§2) For cell proliferation assays, CHO, KB, NCI-IGROV1 and IOSE 7576 cells were plated in 96-well dishes at densities ranging from 2500-5000 cells/well in 200 μL media and treated with a range of inhibitors spanning 0-1000 nM. Experiments with RT16, D4, IGROV1, IOSE 7576 and KB cells used folate-free RPMI 1640 (FF RPMI) media with 10% dialyzed fetal bovine serum and 100 units/mL penicillin/100 μg/mL streptomycin, supplemented with 2 nM leucovorin and 2 mM L-glutamine. FR-mediated drug uptake was assessed in parallel incubations including 200 nM folic acid. For R2/PCFT4, PC43-10 and R2 CHO cells, the medium was FF-RPMI supplemented with 10% dialyzed fetal bovine serum, 100 units/mL penicillin/100 μg/mL streptomycin, 25 nM leucovorin and 2 mM L-glutamine.
(§3) Cells were treated over a 96 h period at 37° C with 5% CO2 and relative cell numbers quantified using the CellTiter-blue cell viability assay (Promega, Madison, WI) and a fluorescence plate reader. Raw data were exported to Excel for analysis and the results were plotted using Graphpad Prism 6.0. Determinations of IC50s were made […]
(§4) assays have been previously described.7, 8, 11, 12, 15-20 […]
7, 8, 11, 12, 15-20 Inhibitory effects of the novel analogs on de novo thymidylate biosynthesis and de novo purine nucleotide biosynthesis were tested by incubating drugs with thymidine (10 μM) and adenosine (60 μM), respectively. Incubation with glycine (130 µM) was used to assess the potential involvement of mitochondrial C1 targeted agents.15 To identify multiple metabolic targets, metabolite additions were added in combination.7, 8, 11, 12, 15-19 Finally, to distinguish targeting between the folate-dependent purine biosynthetic enzymes glycinamide ribonucleotide formyltransferase (GARFTase) and 5-aminoimidazole-4-carboxamide (AICA) ribonucleotide formyltransferase (AICARFTase), co-incubation experiments were performed using AICA hydrochloride (320 μM). 7, 8, 11, 12, […]
Statistics. The biological data reflect at least three experimental replicates. All statistical comparisons were performed using unpaired t-tests. Biological data are presented as mean values +/- standard errors using data without transformation.

[2] = test system: KB tumor cells; thymidylate and de novo purine nucleotide biosynthesis; assay: Metabolite protection experiments in KB cells (thymidine, adenosine, glycine, AICA); format: cell-based, human; details: for targeted pathway from metabolite protection (in words): thymidine 10 μM, adenosine 60 μM, glycine 130 μM, AICA 320 μM
Experimental: To identify the targeted pathways/enzymes of these pyrrolo[2,3-d]pyrimidine compounds (1, 2, 4–8), in vitro growth inhibition assays were performed with KB tumor cells in glycine-, adenosine-, and thymidine-free media without additions or in the presence of thymidine (10 μM), adenosine (60 μM), or glycine (130 μM) (both singly and in various combinations; Figure 4).[18],[23]−[25],[28]−[31],[42],[44],[45] For de novo purine biosynthesis inhibitors, protection was also tested with AICA (320 μM), which is metabolized to AICA ribonucleotide (substrate for the AICARFTase reaction, thus circumventing GARFTase).
Figure 4 Metabolite protection experiments. […] Cell densities were measured with a fluorescence assay[25] and a fluorescence plate reader. Results were normalized to cell densities in the absence of drug. Results shown are mean values plus/minus standard errors from triplicate experiments. Experimental details are described in the Supporting Information, and the methods have been previously published.[18],[23]−[25],[28]−[31],[42],[44]
as §1, §2, §3, §4

| IC50 [1] | SMILES | inhibition of IGROV1 cells (in words) [1] | targeted pathway from metabolite protection (in words) [2] | greater potency than the corresponding 6-desmethyl analogue 3, IGROV1 cells ([1]; IGROV1 cells, relative to compound 3) | potency toward IGROV1 cells compared with IOSE 7576 cells (in words) [1] | protection by glycine / mitochondrial C1 metabolism (in words) ([2]; glycine 130 μM added to adenosine and thymidine) |
| --- | --- | --- | --- | --- | --- | --- |
| 9.31 nM | Cc1[nH]c2nc(N)[nH]c(=O)c2c1CCc1ccc(C(=O)N[C@@H](CCC(=O)O)C(=O)O)cc1 [Compound 5] |  |  |  |  |  |
| 750 nM | Cc1[nH]c2nc(N)[nH]c(=O)c2c1CCCc1ccc(C(=O)N[C@@H](CCC(=O)O)C(=O)O)cc1 [Compound 6] | modestly inhibitory |  |  |  |  |
| 52.7 nM | Nc1nc2[nH]cc(CCCc3ccc(C(=O)N[C@@H](CCC(=O)O)C(=O)O)cc3)c2c(=O)[nH]1 [Compound 2] |  | inhibited both thymidylate and purine nucleotide biosynthesis |  | more potent toward IOSE 7576 cells than IGROV1 cells | addition of glycine provided greater protection than did adenosine and thymidine alone; also recorded: inhibition of mitochondrial C1 metabolism was also suggested |

The next lines start with the compound.

| SMILES | IC50 [1] | inhibition of IGROV1 cells (in words) [1] | targeted pathway from metabolite protection (in words) [2] | greater potency than the corresponding 6-desmethyl analogue 3, IGROV1 cells ([1]; IGROV1 cells, relative to compound 3) | potency toward IGROV1 cells compared with IOSE 7576 cells (in words) [1] | protection by glycine / mitochondrial C1 metabolism (in words) ([2]; glycine 130 μM added to adenosine and thymidine) |
| --- | --- | --- | --- | --- | --- | --- |
| Nc1nc2[nH]cc(CCc3ccc(C(=O)N[C@@H](CCC(=O)O)C(=O)O)c(F)c3)c2c(=O)[nH]1 [Compound 4] | > 1000 nM | inactive | inhibited both thymidylate and purine nucleotide biosynthesis |  |  |  |
| Cc1[nH]c2nc(N)[nH]c(=O)c2c1CCc1ccc(C(=O)N[C@@H](CCC(=O)O)C(=O)O)s1 [Compound 7] | 2.52 nM |  |  | 127 fold |  |  |
| Cc1[nH]c2nc(N)[nH]c(=O)c2c1CCc1ccc(C(=O)N[C@@H](CCC(=O)O)C(=O)O)c(F)c1 [Compound 8] | 134 nM |  |  |  |  |  |
| Nc1nc2[nH]cc(CCc3ccc(C(=O)N[C@@H](CCC(=O)O)C(=O)O)cc3)c2c(=O)[nH]1 [Compound 1, reference compound] | 71 nM |  | inhibited both thymidylate and purine nucleotide biosynthesis |  | more active toward IGROV1 cells |  |
| Nc1nc2[nH]cc(CCc3ccc(C(=O)N[C@@H](CCC(=O)O)C(=O)O)s3)c2c(=O)[nH]1 [Compound 3] | 320 nM |  |  |  | more potent toward IOSE 7576 cells than IGROV1 cells |  |
